Laboratory results as given in PubChem BioAssay (NCI).
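Following 48 hours of exposure in 96-well plates, responses at five concentrations were used to interpolate endpoints linearly. Here, GI50 denotes the concentration required for 50% inhibition of growth. TGI marks complete inhibition of growth.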

Experiments:
Test in all cases: NCI-60 cell line screen, 48 h
[1] = tested on: M14 melanoma
[2] = tested on: 786-0 renal
[3] = tested on: PC-3 prostate
[4] = tested on: SK-OV-3 ovarian
[5] = tested on: HL-60(TB) leukemia
[6] = tested on: OVCAR-8 ovarian
[7] = tested on: TK-10 renal
[8] = tested on: NCI/ADR-RES ovarian
[9] = tested on: U251 CNS
[10] = tested on: UO-31 renal

O=c1[nH]c(=S)[nH]c(O)c1/C=C1\C=Nc2ccccc21
GI50 [1]: 10.6 µM
TGI [1]: 35.1 µM
GI50 [2]: 6.47 µM
TGI [2]: 22.2 µM
GI50 [3]: 4.88 µM
TGI [3]: 73.3 µM
GI50 [4]: 15.7 µM
TGI [4]: 81.5 µM
GI50 [5]: 2.65 µM
TGI [5]: 8.88 µM
GI50 [6]: 3.47 µM
TGI [6]: > 100 µM
GI50 [7]: 25.1 µM
TGI [7]: > 100 µM
GI50 [8]: 6.64 µM
TGI [8]: 58 µM
GI50 [9]: 2.11 µM
TGI [9]: 5.87 µM

CCN(CC)CCCC(Nc1c2ccc(Cl)cc2nc2ccc(OC)cc12)c1ccc(Cl)cc1 (configuration not stated)
GI50 [1]: 0.199 µM
TGI [1]: 0.411 µM
GI50 [2]: 1.29 µM
TGI [2]: 2.91 µM
GI50 [3]: 1.55 µM
TGI [3]: 3.04 µM
GI50 [10]: 1.58 µM
TGI [10]: 3.08 µM
GI50 [4]: 2.05 µM
TGI [4]: 3.89 µM
GI50 [5]: 1.48 µM
TGI [5]: 3.23 µM
GI50 [6]: 1.05 µM
TGI [6]: 2.47 µM
GI50 [7]: 1.62 µM
TGI [7]: 3.14 µM
GI50 [8]: 1.47 µM
TGI [8]: 3.08 µM
GI50 [9]: 0.579 µM
TGI [9]: 1.83 µM

NC(=O)c1nc(-c2c(F)cccc2Cl)oc1Nc1ccc(C(=O)N2CCOCC2)cc1
GI50 [1]: 13.7 µM
TGI [1]: > 100 µM
GI50 [2]: 2.18 µM
TGI [2]: > 100 µM
GI50 [3]: 7.83 µM
TGI [3]: > 100 µM
GI50 [10]: 1.2 µM
TGI [10]: 25.8 µM
GI50 [4]: 2.58 µM
TGI [4]: 75.2 µM
GI50 [5]: 0.478 µM
TGI [5]: 31.7 µM
GI50 [6]: 5.83 µM
TGI [6]: > 100 µM
GI50 [7]: 2.33 µM
TGI [7]: 34.2 µM
GI50 [8]: 6.23 µM
TGI [8]: > 100 µM
GI50 [9]: 2.25 µM
TGI [9]: > 100 µM

O=c1[nH]c2ccccc2cc1-c1nnc(Cc2ccccc2)o1
GI50 [1]: 3.16 µM
TGI [1]: 15.2 µM
GI50 [2]: 4 µM
TGI [2]: 14.6 µM
GI50 [3]: 4.16 µM
TGI [3]: 70.6 µM
GI50 [10]: 1.72 µM
TGI [10]: 3.72 µM
GI50 [4]: 18.3 µM
TGI [4]: 38.1 µM
GI50 [5]: 3.43 µM
TGI [5]: 21.2 µM
GI50 [7]: 5.23 µM
TGI [7]: 16 µM
GI50 [8]: 14.4 µM
TGI [8]: 71.1 µM
GI50 [9]: 4.12 µM
TGI [9]: 14.9 µM

CN(C)C1C(=O)C(C(N)=O)=C(O)C2(O)C(=O)C3=C(O)c4c(O)cccc4C(C)(O)C3CC12.[Cl][Sb]([Cl])[Cl] (configuration not stated)
GI50 [1]: 3.82 µM
TGI [1]: 16.6 µM
GI50 [2]: 4.14 µM
TGI [2]: 17.6 µM
GI50 [3]: 3.05 µM
TGI [3]: 9.92 µM
GI50 [10]: 2.62 µM
TGI [10]: 16.1 µM
GI50 [4]: 3.79 µM
TGI [4]: 14 µM
GI50 [5]: 4.01 µM
TGI [5]: 9.9 µM
GI50 [6]: 3.37 µM
TGI [6]: 13.1 µM
GI50 [7]: 3.85 µM
TGI [7]: 14.3 µM
GI50 [8]: 3.19 µM
TGI [8]: 16.6 µM

Nc1nc(Cl)c2ncn(Cc3ccc(C45CC6CC(CC(C6)C4)C5)c(OCc4cc(F)c(F)cc4F)c3)c2n1
GI50 [2]: 1.85 µM
TGI [2]: 4.93 µM
GI50 [3]: 1 µM
TGI [3]: 3.98 µM
GI50 [10]: 4.54 µM
TGI [10]: 19.4 µM
GI50 [4]: 6.02 µM
TGI [4]: 42.2 µM
GI50 [5]: 1.06 µM
TGI [5]: 2.85 µM
GI50 [6]: 2.94 µM
TGI [6]: 14.2 µM
GI50 [7]: 2.88 µM
TGI [7]: 10.3 µM
GI50 [8]: 3.5 µM
TGI [8]: 13.8 µM
GI50 [9]: 3.04 µM
TGI [9]: 16.3 µM
